The values that follow come from ChEMBL document CHEMBL5512617, “Tackling Influenza A virus by M2 ion channel blockers: Latest progress and limitations” (Eur J Med Chem, 2024).

Molecules are shown by their SMILES. pEC50, pIC50: −log10 of the molar value. Some results are limits rather than exact numbers.

The target in assay [1] is Matrix protein 2 (Influenza A virus (A/Udorn/307/1972(H3N2)), UniProt P0DOF8, V27A).
The next assay has as its system Influenza A virus. The settings on record: mdck.

As to `C1CCC2(CC1)CCNCC2`, the pIC50 in assay [1] was < 3.70. Compound `NC1CCC2(CC1)C1CC3CC(C1)CC2C3` (stereo unspecified) had a pEC50 in the assay with Influenza A virus of 5.74. Compound `NC1CCCC2(CCCCCC2)CC1` (stereo unspecified) had a pIC50 in assay [1] of 4.95.

`N=C(N)NC1CCC2(CC1)C1CC3CC(C1)CC2C3` (stereo unspecified): in assay [1], the negative-log IC50 (pIC50) was 6.30. In addition, the pEC50 in the assay with Influenza A virus was < 4.52. Compound `NCC1CCC2(CCCCC2)CC1` showed a pIC50 in assay [1] of 4.51. The compound `CC(N)C1CCC2(CCCCC2)CC1` (stereo unspecified) had a pIC50 in assay [1] of 4.60. `NC1CSC2(SC1)C1CC3CC(C1)CC2C3` (stereo unspecified) showed a pIC50 in assay [1] of 6.40. This compound also showed a pEC50 in the assay on Influenza A virus of 6.00. Regarding `NC1CCCC2(CCCCC2)CC1` (stereo unspecified), in assay [1], the pIC50 is 4.17. Consider `NC1CCC2(CCCCCC2)CC1`, for which the pIC50 in assay [1] was 4.55.

Usually pIC50 stands for the negative decadic logarithm of the IC50, by convention in mol/L. As usually defined, the pEC50 is the EC50 on a negative log10 scale, so that one unit is a factor of ten. Read a high pEC50 as a low EC50.
